According to the supplement of paper PMC10307832:

How the values were obtained:
Assay in all cases: relative viability (nuclei count vs DMSO), 5 days (fraction); higher = more cells survive
[1] = compound: CC1=CN2C(=O)C=C(N=C2C(=C1)C(C)NC3=CC=CC=C3)N4CCOCC4 [TGX 221] + NC(=O)Nc1cc(-c2cccc(F)c2)sc1C(=O)N[C@H]1CCCNC1 [AZD7762] (partner 0.2 µM)
In short: (§1)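 Relative viability was taken as the ratio of nuclei in treated wells to nuclei in vehicle wells. Lung cancer cell lines in 1536-well plates received compounds by pin tool one day after seeding, either one drug alone or a fixed anchor-drug dose plus five library-drug doses (not always all listed) in √10 steps. Nuclei were counted on 4× images after 5 days of treatment, and values are medians of duplicate plates.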

[2] = compound: CC1=CN2C(=O)C=C(N=C2C(=C1)C(C)NC3=CC=CC=C3)N4CCOCC4 [TGX 221] + N=C(N)NC(=N)NCCc1ccccc1 [Phenformin] (partner 250 µM)
In short: as §1

[3] = compound: CC1=CN2C(=O)C=C(N=C2C(=C1)C(C)NC3=CC=CC=C3)N4CCOCC4 [TGX 221] + Cc1nc(Nc2ncc(C(=O)Nc3c(C)cccc3Cl)s2)cc(N2CCN(CCO)CC2)n1 [Dasatinib] (partner 0.075 µM)
In short: as §1

[4] = compound: O=C(CCCCCCNC(=O)c1cnc(N(c2ccccc2)c2ccccc2)nc1)NO [Ricolinostat] + Nc1ncn([C@H]2C[C@H](O)[C@@H](CO)O2)c(=O)n1 [Decitabine] (partner 2 µM)
In short: as §1

NCI-H1666
relative viability ([1]; first compound 0.08 µM): 0.784 | relative viability ([1]; first compound 0.253 µM): 0.861 | relative viability ([1]; first compound 0.8 µM): 0.923 | relative viability ([1]; first compound 2.53 µM): 0.8 | relative viability ([1]; first compound 8 µM): 0.802 | relative viability ([2]; first compound 0.08 µM): 0.556 | relative viability ([2]; first compound 0.253 µM): 0.52 | relative viability ([2]; first compound 0.8 µM): 0.598 | relative viability ([2]; first compound 2.53 µM): 0.561 | relative viability ([2]; first compound 8 µM): 0.529 | relative viability ([3]; first compound 0.08 µM): 0.81 | relative viability ([3]; first compound 0.253 µM): 0.756 | relative viability ([3]; first compound 0.8 µM): 0.778 | relative viability ([3]; first compound 2.53 µM): 0.739 | relative viability ([3]; first compound 8 µM): 0.753 | relative viability ([4]; first compound 0.08 µM): 0.71 | relative viability ([4]; first compound 0.253 µM): 0.764 | relative viability ([4]; first compound 0.8 µM): 0.758 | relative viability ([4]; first compound 2.53 µM): 0.717

NCI-H1734
relative viability ([1]; first compound 0.08 µM): 0.526 | relative viability ([1]; first compound 0.253 µM): 0.464 | relative viability ([1]; first compound 0.8 µM): 0.499 | relative viability ([1]; first compound 2.53 µM): 0.609 | relative viability ([1]; first compound 8 µM): 0.496 | relative viability ([2]; first compound 0.08 µM): 0.379 | relative viability ([2]; first compound 0.253 µM): 0.362 | relative viability ([2]; first compound 0.8 µM): 0.395 | relative viability ([2]; first compound 2.53 µM): 0.413 | relative viability ([2]; first compound 8 µM): 0.406 | relative viability ([3]; first compound 0.08 µM): 0.472 | relative viability ([3]; first compound 0.253 µM): 0.393 | relative viability ([3]; first compound 0.8 µM): 0.433 | relative viability ([3]; first compound 2.53 µM): 0.444 | relative viability ([3]; first compound 8 µM): 0.391 | relative viability ([4]; first compound 0.08 µM): 0.486 | relative viability ([4]; first compound 0.253 µM): 0.497 | relative viability ([4]; first compound 0.8 µM): 0.519 | relative viability ([4]; first compound 2.53 µM): 0.47

NCI-H1755
relative viability ([1]; first compound 0.08 µM): 0.338 | relative viability ([1]; first compound 0.253 µM): 0.391 | relative viability ([1]; first compound 0.8 µM): 0.399 | relative viability ([1]; first compound 2.53 µM): 0.409 | relative viability ([1]; first compound 8 µM): 0.371 | relative viability ([2]; first compound 0.08 µM): 0.584 | relative viability ([2]; first compound 0.253 µM): 0.598 | relative viability ([2]; first compound 0.8 µM): 0.549 | relative viability ([2]; first compound 2.53 µM): 0.585 | relative viability ([2]; first compound 8 µM): 0.528 | relative viability ([3]; first compound 0.08 µM): 0.406 | relative viability ([3]; first compound 0.253 µM): 0.371 | relative viability ([3]; first compound 0.8 µM): 0.366 | relative viability ([3]; first compound 2.53 µM): 0.317 | relative viability ([3]; first compound 8 µM): 0.317 | relative viability ([4]; first compound 0.08 µM): 0.66 | relative viability ([4]; first compound 0.253 µM): 0.649 | relative viability ([4]; first compound 0.8 µM): 0.696 | relative viability ([4]; first compound 2.53 µM): 0.665

NCI-H1793
relative viability ([1]; first compound 0.08 µM): 0.295 | relative viability ([1]; first compound 0.253 µM): 0.303 | relative viability ([1]; first compound 0.8 µM): 0.313 | relative viability ([1]; first compound 2.53 µM): 0.347 | relative viability ([1]; first compound 8 µM): 0.266 | relative viability ([2]; first compound 0.08 µM): 0.367 | relative viability ([2]; first compound 0.253 µM): 0.256 | relative viability ([2]; first compound 0.8 µM): 0.311 | relative viability ([2]; first compound 2.53 µM): 0.25 | relative viability ([2]; first compound 8 µM): 0.309 | relative viability ([3]; first compound 0.08 µM): 0.344 | relative viability ([3]; first compound 0.253 µM): 0.289 | relative viability ([3]; first compound 0.8 µM): 0.363 | relative viability ([3]; first compound 2.53 µM): 0.48 | relative viability ([3]; first compound 8 µM): 0.381 | relative viability ([4]; first compound 0.08 µM): 0.423 | relative viability ([4]; first compound 0.253 µM): 0.514 | relative viability ([4]; first compound 0.8 µM): 0.56 | relative viability ([4]; first compound 2.53 µM): 0.499

NCI-H1915
relative viability ([1]; first compound 0.08 µM): 0.655 | relative viability ([1]; first compound 0.253 µM): 0.665 | relative viability ([1]; first compound 0.8 µM): 0.665 | relative viability ([1]; first compound 2.53 µM): 0.596 | relative viability ([1]; first compound 8 µM): 0.712 | relative viability ([2]; first compound 0.08 µM): 0.347 | relative viability ([2]; first compound 0.253 µM): 0.358 | relative viability ([2]; first compound 0.8 µM): 0.359 | relative viability ([2]; first compound 2.53 µM): 0.347 | relative viability ([2]; first compound 8 µM): 0.374 | relative viability ([3]; first compound 0.08 µM): 0.257 | relative viability ([3]; first compound 0.253 µM): 0.303 | relative viability ([3]; first compound 0.8 µM): 0.304 | relative viability ([3]; first compound 2.53 µM): 0.302 | relative viability ([3]; first compound 8 µM): 0.314 | relative viability ([4]; first compound 0.08 µM): 0.276 | relative viability ([4]; first compound 0.253 µM): 0.264 | relative viability ([4]; first compound 0.8 µM): 0.245 | relative viability ([4]; first compound 2.53 µM): 0.238

NCI-H1944
relative viability ([1]; first compound 0.253 µM): 0.501 | relative viability ([1]; first compound 0.8 µM): 0.453 | relative viability ([1]; first compound 2.53 µM): 0.513 | relative viability ([1]; first compound 8 µM): 0.455 | relative viability ([2]; first compound 0.08 µM): 0.188 | relative viability ([2]; first compound 0.253 µM): 0.196 | relative viability ([2]; first compound 0.8 µM): 0.191 | relative viability ([2]; first compound 2.53 µM): 0.186 | relative viability ([2]; first compound 8 µM): 0.184 | relative viability ([3]; first compound 0.08 µM): 0.225 | relative viability ([3]; first compound 0.253 µM): 0.202 | relative viability ([3]; first compound 0.8 µM): 0.228 | relative viability ([3]; first compound 2.53 µM): 0.206 | relative viability ([3]; first compound 8 µM): 0.181 | relative viability ([4]; first compound 0.08 µM): 0.409 | relative viability ([4]; first compound 0.253 µM): 0.37 | relative viability ([4]; first compound 0.8 µM): 0.382 | relative viability ([4]; first compound 2.53 µM): 0.385

NCI-H1975
relative viability ([1]; first compound 0.08 µM): 0.688 | relative viability ([1]; first compound 0.253 µM): 0.694 | relative viability ([1]; first compound 0.8 µM): 0.668 | relative viability ([1]; first compound 2.53 µM): 0.662 | relative viability ([1]; first compound 8 µM): 0.557 | relative viability ([2]; first compound 0.08 µM): 0.395 | relative viability ([2]; first compound 0.253 µM): 0.402 | relative viability ([2]; first compound 0.8 µM): 0.389 | relative viability ([2]; first compound 2.53 µM): 0.399 | relative viability ([2]; first compound 8 µM): 0.366 | relative viability ([3]; first compound 0.08 µM): 0.347 | relative viability ([3]; first compound 0.253 µM): 0.335 | relative viability ([3]; first compound 0.8 µM): 0.318 | relative viability ([3]; first compound 2.53 µM): 0.345 | relative viability ([3]; first compound 8 µM): 0.343 | relative viability ([4]; first compound 0.08 µM): 0.371 | relative viability ([4]; first compound 0.253 µM): 0.394 | relative viability ([4]; first compound 0.8 µM): 0.382 | relative viability ([4]; first compound 2.53 µM): 0.379

NCI-H1993
relative viability ([1]; first compound 0.08 µM): 0.676 | relative viability ([1]; first compound 0.253 µM): 0.657 | relative viability ([1]; first compound 0.8 µM): 0.685 | relative viability ([1]; first compound 2.53 µM): 0.899 | relative viability ([1]; first compound 8 µM): 0.785 | relative viability ([2]; first compound 0.08 µM): 0.427 | relative viability ([2]; first compound 0.253 µM): 0.568 | relative viability ([2]; first compound 0.8 µM): 0.54 | relative viability ([2]; first compound 2.53 µM): 0.517 | relative viability ([2]; first compound 8 µM): 0.54 | relative viability ([3]; first compound 0.08 µM): 0.504 | relative viability ([3]; first compound 0.253 µM): 0.634 | relative viability ([3]; first compound 0.8 µM): 0.557 | relative viability ([3]; first compound 2.53 µM): 0.541 | relative viability ([3]; first compound 8 µM): 0.572 | relative viability ([4]; first compound 0.08 µM): 0.571 | relative viability ([4]; first compound 0.253 µM): 0.588 | relative viability ([4]; first compound 0.8 µM): 0.599 | relative viability ([4]; first compound 2.53 µM): 0.709

NCI-H2085
relative viability ([1]; first compound 0.08 µM): 0.96 | relative viability ([1]; first compound 0.253 µM): 0.769 | relative viability ([1]; first compound 0.8 µM): 0.583 | relative viability ([1]; first compound 2.53 µM): 0.37 | relative viability ([1]; first compound 8 µM): 0.397 | relative viability ([2]; first compound 0.08 µM): 0.817 | relative viability ([2]; first compound 0.253 µM): 0.562 | relative viability ([2]; first compound 0.8 µM): 0.588 | relative viability ([2]; first compound 2.53 µM): 0.462 | relative viability ([2]; first compound 8 µM): 0.425 | relative viability ([3]; first compound 0.08 µM): 0.228 | relative viability ([3]; first compound 0.253 µM): 0.195 | relative viability ([3]; first compound 0.8 µM): 0.208 | relative viability ([3]; first compound 2.53 µM): 0.191 | relative viability ([3]; first compound 8 µM): 0.187 | relative viability ([4]; first compound 0.253 µM): 0.51 | relative viability ([4]; first compound 0.8 µM): 0.557 | relative viability ([4]; first compound 2.53 µM): 0.512

NCI-H2087
relative viability ([1]; first compound 0.08 µM): 1.04 | relative viability ([1]; first compound 0.253 µM): 1.23 | relative viability ([1]; first compound 0.8 µM): 1.37 | relative viability ([1]; first compound 2.53 µM): 1.2 | relative viability ([1]; first compound 8 µM): 1.21 | relative viability ([2]; first compound 0.08 µM): 0.425 | relative viability ([2]; first compound 0.253 µM): 0.455 | relative viability ([2]; first compound 0.8 µM): 0.524 | relative viability ([2]; first compound 2.53 µM): 0.472 | relative viability ([2]; first compound 8 µM): 0.471 | relative viability ([3]; first compound 0.08 µM): 1.02 | relative viability ([3]; first compound 0.253 µM): 0.75 | relative viability ([3]; first compound 0.8 µM): 0.646 | relative viability ([3]; first compound 2.53 µM): 0.9 | relative viability ([3]; first compound 8 µM): 0.993 | relative viability ([4]; first compound 0.08 µM): 0.23 | relative viability ([4]; first compound 0.253 µM): 0.318 | relative viability ([4]; first compound 0.8 µM): 0.24 | relative viability ([4]; first compound 2.53 µM): 0.145
